From US8969405B2, “Anticancer compounds and methods of making and using same” (St. Jude Children's Research Hospital, priority 2008, dated 2015)

Assays:
cell cycle = conditions: reported in the literature; cited from earlier work
[1] = system: PC-3 prostate cancer cell line; assay: In vitro cytotoxicity analysis (XTT), 72-hour exposure; assay type: cell-based; conditions: Homo sapiens, PC3 cells
Procedure: (§1) Briefly, cell lines were seeded at various cell densities depending on the cell type.
(§2) Tables 1-3 display cytotoxicity data for exemplary compounds following a 72-hour exposure.

[2] = system: JeKo-1 mantle cell lymphoma cell line; assay: as above; assay type: cell-based; conditions: Homo sapiens, JEKo1 cells
Procedure: as §1, §2

[3] = Stability study in buffer solution by HPLC; assay type: physicochemical; conditions: 100 μM in PBS buffer and DMSO (2:1)
Procedure: Stability studies were performed for exemplary compounds 48 and 15. A 100 μM solution of compound 48 was prepared in buffer (PBS, pH 7.4) and warfarin was used as an internal standard. A sample was injected into a HPLC periodically starting at day 0 and ending at about 6 weeks to find out the stability of compound 48 in PBS solution. […] After 6 weeks, 58% of compound 48 remained in the buffer solution.

[4] = system: JeKo-1 mantle cell lymphoma tumors; assay: In vivo efficacy study, JeKo-1 tumor-bearing mice
Procedure: Arrows indicate the dosing schedule. The data are represented as mean±SEM.
Studies were carried out to determine whether the above doses were capable of inhibiting tumor growth in mice (FIG. 4). […] A widely used criterion for determining antitumor activity is tumor growth inhibition (T/C). This value is calculated by dividing the median tumor volumes of treated mice by the median volumes in control mice.

NOD/SCID mice = assay: Mouse maximum tolerated dose (MTD) study; assay type: in vivo; conditions: for fatality: daily for five days, three mice per group
Procedure: The mice were monitored for one week following compound administration. […] There was one fatality in the IP 25 mg/kg and one in the IV 50 mg/kg groups.

[5] = system: experimental tumors in mice; conditions: reported, Nakajima et al. 1996; cited from earlier work

| Compound | effect on the cell cycle (cell cycle) | IC50 [1] | IC50 [2] | compound remaining in the buffer ([3]; after 6 weeks) | half-life at 100 μM ([3]; read-out: calculated half life (converted)) | fatalities or weight loss in efficacy study ([4]; 5, 10, 25, or 50 mg/kg IV daily for five consecutive days) | tumor volumes compared to vehicle-treated mice ([4]; 10, 25, or 50 mg/kg IV daily for five consecutive days from day 4) | fatality (NOD/SCID mice; IP 25 mg/kg group) | fatality (NOD/SCID mice; IV 50 mg/kg group) | blood cell counts in treated versus vehicle-only mice (NOD/SCID mice; NOD/SCID mice, 5-50 mg/kg daily for five days, IV and IP) | weight loss (NOD/SCID mice; NOD/SCID mice, 5-50 mg/kg daily for five days, IV and IP, monitored one week after dosing) | total necropsies, organ histologies (NOD/SCID mice; NOD/SCID mice, treatment and vehicle-only groups) | activity in in vivo cancer animal models [5] |
| --- | --- | --- | --- | --- | --- | --- | --- | --- | --- | --- | --- | --- | --- |
| CC[C@H](O)[C@@H](C)[C@H]1O[C@@H]1C[C@H](C)/C=C/C=C(\C)[C@H]1OC(=O)C[C@H](O)CC[C@@](C)(O)[C@@H](OC(C)=O)/C=C/[C@@H]1C [pladienolide] | cell cycle arrest at the G1 and G2/M phases | – | – | – | – | – | – | – | – | – | – | – | – |
| CC(/C=C/[C@@H]1C[C@]2(CO2)CC(C)(C)O1)=C\C[C@H]1CC[C@@H](NC(=O)/C=C\[C@H](C)OC(=O)C(C)C)CC1 [Compound 15, (S,Z)-5-((1R,4R)-4-((2E,4E)-5-((3R,5S)-7,7-dimethyl-1,6-dioxaspiro[2.5]octan-5-yl)-3-methylpenta-2,4-dienyl)cyclohexylamino)-5-oxopent-3-en-2-yl isobutyrate] | – | 1900 nM | 40 nM | 53% | 50.6 days | No fatalities or significant weight loss | statistically significant decreases | one | one | No significant differences | No significant weight loss | no significant toxicities | – |
| CC(=O)O[C@@H](C)/C=C\C(=O)N[C@@H]1C[C@H](C)[C@H](C/C=C(C)/C=C/[C@H]2O[C@](C)(O)C[C@@]3(CO3)[C@@H]2O)O[C@@H]1C [FR901464] | cell cycle arrest at the G1 and G2/M phases | – | – | – | – | – | – | – | – | – | – | – | showed activity |
